Reference: US11078170B2 (Assembly Biosciences, Inc., priority 2017, dated 2021)

system: HBV viral production from HepAD38 cells; assay: Activity of test compounds on viral production from HepAD38 cells (viral load by qPCR of HBV core sequence in supernatant); type: cell-based; conditions: Hepatitis B virus, 120 h, 5 days incubation, HBV DNA in supernatant by qPCR, top concentration 10 μM, read-out: Viral Load EC50 Activity range
Summary of the method: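 EC50 and CC50 come from four-parameter fits of supernatant viral load and CellTiter-Glo viability, respectively. Viral load was measured by core-region TaqMan qPCR against HBV DNA standards and compared with DMSO controls. Tet-free HepAD38 cells (50,000/well, 2% FBS) were exposed to compound, highest 10 μM, for 5 days at 37° C.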

SMILES	EC50 [nM]
O=C(Nc1ccc(F)c(Cl)c1)[C@H]1C[C@@H](c2nccs2)NS(=O)(=O)N1CCCN1CCCC1 [HBV-CSU-102-ISO-I, Cis-N-(3-Chloro-4-fluorophenyl)-2-(3-(pyrrolidin-1-yl)propyl)-5-(thiazol-2-yl)-1,2,6-thiadiazinane-3-carboxamide 1,1-dioxide]	> 5000
[2H]C([2H])([2H])N1C(C(=O)Nc2ccc(F)c(Cl)c2)CC(c2ncc(Br)s2)NS1(=O)=O (centres unmarked) [HBV-CSU-336, 5-(5-Bromothiazol-2-yl)-N-(3-chloro-4-fluorophenyl)-2-(methyl-d3)-1,2,6-thiadiazinane-3-carboxamide 1,1-dioxide]	< 1000
CN1C(C(=O)Nc2ccc(F)c(Cl)c2)CC(c2cc(-c3cn[nH]c3)cs2)NS1(=O)=O (centres unmarked) [HBV-CSU-245]	< 1000
CN1[C@H](C(=O)Nc2ccc(F)c(Cl)c2)C[C@H](c2cnc(-c3ccccc3)s2)NS1(=O)=O [HBV-CSU-235-ISO-I, N-(3-Chloro-4-fluorophenyl)-2-methyl-5-(2-phenylthiazol-5-yl)-1,2,6-thiadiazinane-3-carboxamide 1,1-dioxide]	< 1000
[2H]C([2H])([2H])N1[C@@H](C(=O)Nc2ccc(F)c(Cl)c2)C[C@@H](c2ccc(-c3cn(C([2H])([2H])[2H])cn3)s2)NS1(=O)=O (stereo in doubt) [HBV-CSU-374-ISO-II, Cis-N-(3-Chloro-4-fluorophenyl)-2-(methyl-d3)-5-(5-(1-(methyl-d3)-1H-imidazol-4-yl)thiophen-2-yl)-1,2,6-thiadiazinane-3-carboxamide 1,1-dioxide]	< 1000
CN1[C@H](C(=O)Nc2ccc(F)c(Cl)c2)C[C@H](c2ccon2)NS1(=O)=O [HBV-CSU-055-ISO-I, Cis-N-(3-chloro-4-fluorophenyl)-5-(isoxazol-3-yl)-2-methyl-1,2,6-thiadiazinane-3-carboxamide 1,1-dioxide]	< 1000
CN1C(C(=O)Nc2ccc(F)c(Cl)c2)CC(c2cc(Cl)c(O)c(Cl)c2)NS1(=O)=O (stereo not drawn) [HBV-CSU-260, Cis-N-(3-Chloro-4-fluorophenyl)-5-(3,5-dichloro-4-hydroxyphenyl)-2-methyl-1,2,6-thiadiazinane-3-carboxamide 1,1-dioxide]	< 1000
CN1C(C(=O)Nc2ccc(F)c(Cl)c2)CC(c2ccc(C(F)(F)F)s2)NS1(=O)=O (racemic) [HBV-CSU-219, Cis-N-(3-Chloro-4-fluorophenyl)-2-methyl-5-(5-(trifluoromethyl)thiophen-2-yl)-1,2,6-thiadiazinane-3-carboxamide 1,1-dioxide]	< 1000
CN(C)CCN1[C@H](c2cccs2)C[C@H](C(=O)Nc2ccc(F)c(Cl)c2)N(C)S1(=O)=O [HBV-CSU-043-ISO-II, Cis-N-(3-chloro-4-fluorophenyl)-6-(2-(dimethylamino)ethyl)-2-methyl-5-(thiophen-2-yl)-1,2,6-thiadiazinane-3-carboxamide 1,1-dioxide]	> 5000
O=C(Nc1ccc(F)c(Cl)c1)C1CC(c2nccs2)NS(=O)(=O)N1CCCN1CCOCC1 (stereo not drawn) [HBV-CSU-103, Cis-N-(3-Chloro-4-fluorophenyl)-2-(3-morpholinopropyl)-5-(thiazol-2-yl)-1,2,6-thiadiazinane-3-carboxamide 1,1-dioxide]	> 5000
O=C(Nc1ccc(F)c(Cl)c1)C1CC(c2nccs2)NS(=O)(=O)N1CC1CCCO1 (racemic) [HBV-CSU-079-Rac-A, Cis-N-(3-Chloro-4-fluorophenyl)-2-((tetrahydrofuran-2-yl)methyl)-5-(thiazol-2-yl)-1,2,6-thiadiazinane-3-carboxamide 1,1-dioxide]	< 1000
CN1[C@@H](C(=O)Nc2ccc(F)c(Cl)c2)C[C@@H](c2cccc(-c3cnn(C)c3)c2)NS1(=O)=O [HBV-CSU-247-ISO-II, Cis-N-(3-chloro-4-fluorophenyl)-2-methyl-5-(3-(1-methyl-1H-pyrazol-4-yl)phenyl)-1,2,6-thiadiazinane-3-carboxamide 1,1-dioxide]	< 1000
[2H]C1[C@]([2H])(c2ccc(-c3cn(C([2H])([2H])[2H])cn3)s2)NS(=O)(=O)N(C)[C@]1([2H])C(=O)Nc1ccc(F)c(Cl)c1 (stereo in doubt) [HBV-CSU-376-ISO-I, Cis-N-(3-Chloro-4-fluorophenyl)-2-methyl-5-(5-(1-(methyl-d3)-1H-imidazol-4-yl)thiophen-2-yl)-1,2,6-thiadiazinane-3,4,5-d3-3-carboxamide 1,1-dioxide]	< 1000
CN1[C@@H](C(=O)Nc2ccc(F)c(Cl)c2)C[C@@H](c2ccc(Br)s2)NS1(=O)=O [HBV-CSU-114-ISO-II, 5-(5-Bromothiophen-2-yl)-N-(3-chloro-4-fluorophenyl)-2-methyl-1,2,6-thiadiazinane-3-carboxamide 1,1-dioxide]	> 5000
CN1[C@H](C(=O)Nc2ccc(F)c(Cl)c2)C[C@H](c2ccccn2)NS1(=O)=O [HBV-CSU-031-ISO-I, Cis-N-(3-Chloro-4-fluorophenyl)-2-methyl-5-(pyridin-2-yl)-1,2,6-thiadiazinane-3-carboxamide 1,1-dioxide]	< 1000
CN1[C@H](C(=O)Nc2ccc(F)c(Cl)c2)C[C@H](c2ccc(F)s2)NS1(=O)=O [HBV-CSU-029-ISO-I, Cis-N-(3-chloro-4-fluorophenyl)-5-(5-fluorothiophen-2-yl)-2-methyl-1,2,6-thiadiazinane-3-carboxamide 1,1-dioxide]	< 1000
CN1[C@@H](C(=O)Nc2ccc(F)c(Cl)c2)C[C@@H](c2cc(-c3ccc(F)cn3)cs2)NS1(=O)=O (stereo in doubt) [HBV-CSU-243-ISO-I, Cis-N-(3-chloro-4-fluorophenyl)-5-(4-(5-fluoropyridin-2-yl)thiophen-2-yl)-2-methyl-1,2,6-thiadiazinane-3-carboxamide 1,1-dioxide]	> 5000
CN1[C@H](C(=O)Nc2ccc(F)c(Cl)c2)C[C@H](c2ccc(-c3cncn3C)s2)NS1(=O)=O [HBV-CSU-267-ISO-I, Cis-N-(3-Chloro-4-fluorophenyl)-2-methyl-5-(5-(1-methyl-1H-imidazol-5-yl)thiophen-2-yl)-1,2,6-thiadiazinane-3-carboxamide 1,1-dioxide]	< 1000
[2H]C1C([2H])(c2ccc(-c3cn(C)cn3)s2)NS(=O)(=O)N(C)C1([2H])C(=O)Nc1ccc(F)c(Cl)c1 (stereo not drawn) [HBV-CSU-375, Cis-N-(3-Chloro-4-fluorophenyl)-2-methyl-5-(5-(1-methyl-1H-imidazol-4-yl)thiophen-2-yl)-1,2,6-thiadiazinane-3,4,5-d3-3-carboxamide 1,1-dioxide]	< 1000
CN1[C@H](C(=O)Nc2ccc(F)c(Br)c2)C[C@H](c2ncc(-c3cn(C)cn3)s2)NS1(=O)=O [HBV-CSU-369, (3S,5R)—N-(3-bromo-4-fluorophenyl)-2-methyl-5-(5-(1-methyl-1H-imidazol-4-yl)thiazol-2-yl)-1,2,6-thiadiazinane-3-carboxamide 1,1-dioxide]	< 1000
COc1ccc(-c2csc([C@H]3C[C@@H](C(=O)Nc4ccc(F)c(Cl)c4)N(C)S(=O)(=O)N3)c2)cc1 [HBV-CSU-241-ISO-I]	< 1000
CN1[C@H](C(=O)Nc2ccc(F)c(Cl)c2)C[C@H](c2cc(-c3cnn(CCO)c3)cs2)NS1(=O)=O [HBV-CSU-296-ISO-I, Cis-N-(3-chloro-4-fluorophenyl)-5-(4-(1-(2-hydroxyethyl)-1H-pyrazol-4-yl)thiophen-2-yl)-2-methyl-1,2,6-thiadiazinane-3-carboxamide 1,1-dioxide]	< 1000
CN1C(C(=O)Nc2ccc(F)c(Cl)c2)CC(c2ccc(C#N)c(F)c2)NS1(=O)=O (racemic) [HBV-CSU-221, Cis-N-(3-chloro-4-fluorophenyl)-5-(4-cyano-3-fluorophenyl)-2-methyl-1,2,6-thiadiazinane-3-carboxamide 1,1-dioxide]	< 1000
CN1[C@@H](C(=O)Nc2ccc(F)c(Cl)c2)C[C@@H](c2ncc(-c3cncn3C)s2)NS1(=O)=O [HBV-CSU-277-ISO-II, Cis-N-(3-Chloro-4-fluorophenyl)-2-methyl-5-(5-(1-methyl-1H-imidazol-5-yl)thiazol-2-yl)-1,2,6-thiadiazinane-3-carboxamide 1,1-dioxide]	> 5000
CN1[C@H](C(=O)Nc2ccc(F)c(Cl)c2)C[C@H](c2ccc(-c3ccn(C)n3)s2)NS1(=O)=O [HBV-CSU-270-ISO-I, Cis-N-(3-Chloro-4-fluorophenyl)-2-methyl-5-(5-(1-methyl-1H-pyrazol-3-yl)thiophen-2-yl)-1,2,6-thiadiazinane-3-carboxamide 1,1-dioxide]	< 1000
CN1[C@H](C(=O)Nc2ccc(F)c(Cl)c2)C[C@H](c2ccc(C(F)(F)F)cc2)NS1(=O)=O (stereo in doubt) [HBV-CSU-217-ISO-I, Cis-N-(3-Chloro-4-fluorophenyl)-2-methyl-5-(4-(trifluoromethyl)phenyl)-1,2,6-thiadiazinane-3-carboxamide 1,1-dioxide]	> 5000
[2H]C1[C@]([2H])(c2ccc(Br)s2)NS(=O)(=O)N(C)[C@]1([2H])C(=O)Nc1ccc(F)c(Cl)c1 (stereo in doubt) [HBV-CSU-371-ISO-I, Cis-5-(5-Bromothiophen-2-yl)-N-(3-chloro-4-fluorophenyl)-2-methyl-1,2,6-thiadiazinane-3,4,5-d3-3-carboxamide 1,1-dioxide]	< 1000
COCCN1C(c2cccs2)CC(C(=O)Nc2ccc(F)c(Cl)c2)N(C)S1(=O)=O (stereo not drawn) [HBV-CSU-064, Cis-N-(3-Chloro-4-fluorophenyl)-6-(2-methoxyethyl)-2-methyl-5-(thiophen-2-yl)-1,2,6-thiadiazinane-3-carboxamide 1,1-dioxide]	> 5000
CN1[C@@H](C(=O)Nc2ccc(F)c(Cl)c2)C[C@@H](c2ccc(-c3cnn(C(F)(F)F)c3)s2)NS1(=O)=O [HBV-CSU-321-ISO-II, Cis-N-(3-Chloro-4-fluorophenyl)-2-methyl-5-(5-(1-(trifluoromethyl)-1H-pyrazol-4-yl)thiophen-2-yl)-1,2,6-thiadiazinane-3-carboxamide 1,1-dioxide]	> 5000
